The structures appear in SMILES notation. Where a name gives a salt, the structure may show the parent alone.

Data set [1] can be described thus: Stability of cyclodextrin derivatives in solution / on storage (hydrolysis). The data set is classed as physicochemical.
A short description of data set [2]: Solubility of amino cyclodextrins compared with unsubstituted cyclodextrin. The data set is classed as physicochemical. The note with it: water or other aqueous-based media. The source says: Solubility--refers to solution in water or other aqueous-based media.

In the case of `[N-]=[N+]=NC[C@H]1O[C@@H]2O[C@H]3[C@H](O)[C@@H](O)[C@@H](O[C@H]4[C@H](O)[C@@H](O)[C@@H](O[C@H]5[C@H](O)[C@@H](O)[C@@H](O[C@H]6[C@H](O)[C@@H](O)[C@@H](O[C@H]7[C@H](O)[C@@H](O)[C@@H](O[C@H]1[C@H](O)[C@H]2O)O[C@@H]7CO)O[C@@H]6CO)O[C@@H]5CO)O[C@@H]4CO)O[C@@H]3CO` [6-Axido-6-Deoxy-α-Cyclodextrin, 6^A -Azido-6^A -deoxy-α-cyclodextrin], the stability in solution result in data set [1] is given as “not very stable in solution”. `NC[C@H]1O[C@@H]2O[C@H]3[C@H](O)[C@@H](O)[C@@H](O[C@H]4[C@H](O)[C@@H](O)[C@@H](O[C@H]5[C@H](O)[C@@H](O)[C@@H](O[C@H]6[C@H](O)[C@@H](O)[C@@H](O[C@H]7[C@H](O)[C@@H](O)[C@@H](O[C@H]8[C@H](O)[C@@H](O)[C@@H](O[C@H]1[C@H](O)[C@H]2O)O[C@@H]8CO)O[C@@H]7CO)O[C@@H]6CO)O[C@@H]5CO)O[C@@H]4CO)O[C@@H]3CO` [6^A -amino-6^A -deoxy-β-cyclodextrin hydrochloride salt]: the solubility result in data set [2] was “greater than 20 g/100 ml”. On to `NC[C@H]1O[C@@H]2O[C@H]3[C@H](O)[C@@H](O)[C@@H](O[C@H]4[C@H](O)[C@@H](O)[C@@H](O[C@H]5[C@H](O)[C@@H](O)[C@@H](O[C@H]6[C@H](O)[C@@H](O)[C@@H](O[C@H]7[C@H](O)[C@@H](O)[C@@H](O[C@H]8[C@H](O)[C@@H](O)[C@@H](O[C@H]1[C@H](O)[C@H]2O)O[C@@H]8CO)O[C@@H]7CO)O[C@@H]6CO)O[C@@H]5CO)O[C@@H]4CO)O[C@@H]3CO` [6^A -amino-6^A -deoxy-β-cyclodextrin, 6^A -Amino-6^A -deoxy-β-cyclodextrin], for which, in data set [2], the solubility entry is given as “about 4.8 g/100 ml”. Further, the stability in solution result in data set [1] is on record as “not stable in solution”.

Take `CC(=O)O[C@H]1[C@H]2O[C@H]3[C@H](O)[C@@H](O)[C@@H](O[C@H]4[C@H](O)[C@@H](O)[C@@H](O[C@H]5[C@H](O)[C@@H](O)[C@@H](O[C@H]6[C@H](O)[C@@H](O)[C@@H](O[C@H]7[C@H](O)[C@@H](O)[C@@H](O[C@@H]([C@@H]1O)[C@@H](CO)O2)O[C@@H]7CO)O[C@@H]6CO)O[C@@H]5CO)O[C@@H]4CO)O[C@@H]3CO` [α-2CDOAc, 2^A -O-Acetyl-α-cyclodextrin]: in data set [1] (general / in water / during purification), the hydrolysis entry is reported as “total purification could not be achieved due to hydrolysis of the product”.

The record behind these values is patent US5324750A, “Compositions and methods for drug delivery and chromatography” (priority 1988, dated 1994).
